Here are results for 10 compounds from PMC10787407, “Regulation of polysaccharide in Wu‐tou decoction on intestinal microflora and pharmacokinetics of small molecular compounds in AIA rats” (Chinese Medicine, 2024).

This series can be described thus: PK study of SM components in plasma of AIA rats by UPLC-MS/MS (MG vs MPS group). The conditions noted are these: for AUC 0-t / AUC 0-∞ / C max / T max / t 1/2 / AUC(0-inf) / Cmax / Tmax / half-life: then oral SM 39.2 g crude drug/kg, plasma, mean ± SEM; for Absorption under the intervention of PS: MPS vs MG group; for Cmax: C max; for Tmax: T max.
[1] abbreviates: MG group: AIA rats, saline 21 days.
Setting [2] is: MPS group compared with the MG group, AIA rats.
The mark [3] stands for this setting: MPS group: AIA rats, oral PS 9.8 g crude drug/kg/day 21 days.
[4] abbreviates: Sprague-Dawley, rat, po, 39.2 g/kg/day, AUC 0-t, MPS group: AIA rats, oral PS 9.8 g crude drug/kg/day 21 days.
[5] abbreviates: Sprague-Dawley, rat, po, 39.2 g/kg/day, MG group: AIA rats, saline 21 days.
Where [6] appears, read: Sprague-Dawley, rat, po, 39.2 g/kg/day, MPS group: AIA rats, oral PS 9.8 g crude drug/kg/day 21 days.
[7] abbreviates: Sprague-Dawley, rat, po, 39.2 g/kg/day, t 1/2, MG group: AIA rats, saline 21 days.
Setting [8] is: Sprague-Dawley, rat, po, 39.2 g/kg/day, t 1/2, MPS group: AIA rats, oral PS 9.8 g crude drug/kg/day 21 days.
Where [9] appears, read: Sprague-Dawley, rat, po, 39.2 g/kg/day, AUC 0-t, MG group: AIA rats, saline 21 days.

Usually AUC(0-inf) stands for the area under the concentration-time curve extrapolated to infinity. Low values mean low exposure, high ones high exposure. For orientation: Cmax means the maximum level reached in the sampled fluid or tissue. In general, Tmax refers to the time from dosing to the highest level. For orientation: half-life means how long it takes for the measured level to halve. A higher half-life goes with slow decline.

Protocol: In the PK study, 12 SD rats were divided into model group (MG group) and model + polysaccharide group (MPS group). Rats in the MPS group were given PS (9.8 g crude drug/kg/day) by oral administration, while rats in the MG group received the same amount of saline. After continuous administration for 21 days, rats in both groups were given SM (39.2 g crude drug/kg/day), and two groups of rats were subjected to a PK study.
The supernatant was collected and dried with N2, redissolved with 100 μL methanol, and centrifuged again after 10 min centrifugation at 4 °C, 13000 rpm. Then the supernatant was collected for UPLC-MS /MS analysis.
The Shimadzu UPLC-MS/MS system was used for the PK study. […] The multiple reaction monitoring (MRM) mode was used both in positive and negative mode. The MS parameters were as follows: flow rate of heating gas 10 L/min, flow rate of drying gas 10 L/min, flow rate of atomizing gas 3 L/min, interfacial temperature 300 ℃, DL temperature 250 ℃.
Separation was performed using a Waters ACQUITY UPLC BEH C18 column (2.1 mm × 100 mm, 1.7 μm). The mobile phase was 0.1% formic acid water (v/v) (A) and acetonitrile (B).

Regarding `C[C@]12C[C@@H](O)[C@@H]3C[C@@]1(O[C@@H]1O[C@H](CO)[C@@H](O)[C@H](O)[C@H]1O)[C@@]3(COC(=O)c1ccccc1)C(=O)O2` [Albiflorin], under setting [1], the “AUC 0-t” value turned out to be 424.990 ± 55.691 ng·h/mL, the “AUC 0-∞” value turned out to be 458.506 ± 69.994 ng·h/mL, the C max is given as 287.831 ± 42.177 ng/mL and the T max is on record as 0.250 ± 0.001 h. Besides, the “t 1/2” value under setting [1] amounted to 2.488 ± 0.458 h. Under setting [2], the “Change of AUC 0-t after oral PS” value is listed as “increased” and the “Change of AUC 0-∞ after oral PS” value is reported as “increased”. Under setting [3], the “AUC 0-t” value was determined as 644.268 ± 174.084 ng·h/mL, the “AUC 0-∞” value was 698.946 ± 175.788 ng·h/mL, the C max was found to be 306.851 ± 57.880 ng/mL and the T max was found to be 0.139 ± 0.072 h. The “t 1/2” value under setting [3] stood at 1.669 ± 0.080 h. The “Absorption under the intervention of PS” value (AIA rats) was “increased”.
For the compound `CCN1C[C@]2(COC)[C@H](O)C[C@H](OC)[C@@]34[C@@H]5C[C@@]6(O)[C@H](OC(=O)c7ccccc7)[C@@H]5[C@@](O)([C@@H]([C@H](OC)[C@H]23)[C@@H]14)[C@@H](O)[C@@H]6OC` [Benzoylaconine], under setting [1], the “AUC 0-t” value was determined as 0.764 ± 0.082 ng·h/mL, the “AUC 0-∞” value came out at 1.015 ± 0.158 ng·h/mL, the C max stood at 0.548 ± 0.178 ng/mL and the T max stood at 0.125 ± 0.072 h. Further, the “t 1/2” value under setting [1] is on record as 7.430 ± 5.148 h. Further, under setting [3], the “AUC 0-t” value turned out to be 1.064 ± 0.136 ng·h/mL, the “AUC 0-∞” value worked out at 1.202 ± 0.128 ng·h/mL, the C max stood at 0.720 ± 0.116 ng/mL and the T max came out at 0.083 ± 0.001 h. Besides, under setting [3], the “t 1/2” value worked out at 3.875 ± 1.842 h.
As to `COC[C@@]12CC[C@H](OC)[C@]34C([C@H]([C@H](OC)[C@H]13)[C@]1(O)[C@H]3[C@@H](OC(=O)c5ccccc5)[C@](O)(C[C@H]34)[C@@H](OC)[C@@H]1O)N(C)C2` [Benzoylhypaconine], under setting [1], the “AUC 0-t” value worked out at 1.018 ± 0.049 ng·h/mL, the “AUC 0-∞” value was determined as 1.123 ± 0.062 ng·h/mL, the C max stood at 0.467 ± 0.108 ng/mL and the T max is 0.083 ± 0.001 h. The “t 1/2” value under setting [1] came to 3.938 ± 0.322 h. In addition, under setting [2], the “Change of AUC 0-∞ after oral PS” value is “increased” and the “Change of C max after oral PS” value is on record as “increased”. Also, under setting [3], the “AUC 0-t” value stood at 1.394 ± 0.255 ng·h/mL, the “AUC 0-∞” value amounted to 1.604 ± 0.229 ng·h/mL, the C max was 0.861 ± 0.160 ng/mL and the T max is reported as 0.083 ± 0.001 h. For the same compound, the “t 1/2” value under setting [3] came out at 4.742 ± 0.904 h. Also, the “Absorption under the intervention of PS” value (AIA rats) is “increased”.
Take `COC[C@]12CN(C)C3[C@@H]4[C@H](OC)[C@H]1[C@@]3([C@@H](OC)C[C@H]2O)[C@@H]1C[C@@]2(O)[C@H](OC(=O)c3ccccc3)[C@@H]1[C@]4(O)[C@@H](O)[C@@H]2OC` [Benzoylmesaconitine]: under setting [1], the “AUC 0-t” value came out at 21.413 ± 1.140 ng·h/mL, the “AUC 0-∞” value is 23.447 ± 1.422 ng·h/mL, the C max amounted to 14.305 ± 3.689 ng/mL and the T max is given as 0.139 ± 0.079 h. Besides, the “t 1/2” value under setting [1] is recorded as 3.530 ± 0.873 h. Further, under setting [3], the “AUC 0-t” value was 25.368 ± 7.147 ng·h/mL, the “AUC 0-∞” value came to 25.465 ± 7.145 ng·h/mL, the C max was 15.899 ± 4.818 ng/mL and the T max was determined as 0.083 ± 0.001 h. The “t 1/2” value under setting [3] is 1.723 ± 0.296 h.
With `COc1ccc(-c2coc3cc(O[C@@H]4O[C@H](CO)[C@@H](O)[C@H](O)[C@H]4O)ccc3c2=O)cc1O` [Calycosin-7-glycoside], under setting [1], the “AUC 0-t” value came out at 17.473 ± 2.858 ng·h/mL, the “AUC 0-∞” value stood at 18.097 ± 2.629 ng·h/mL, the C max is on record as 17.607 ± 2.640 ng/mL and the T max is reported as 0.110 ± 0.062 h. Further, under setting [1], the “t 1/2” value turned out to be 2.342 ± 0.959 h. Moreover, under setting [3], the “AUC 0-t” value was found to be 15.987 ± 2.778 ng·h/mL, the “AUC 0-∞” value is 16.625 ± 2.476 ng·h/mL, the C max is 15.506 ± 2.308 ng/mL and the T max is given as 0.083 ± 0.001 h. Also, the “t 1/2” value under setting [3] amounted to 2.113 ± 0.779 h.
For the compound `COc1ccc(-c2coc3cc(O)ccc3c2=O)cc1` [Formononetin], the “AUC 0-t” value runs as follows: under setting [1], 15.278 ± 1.823 ng·h/mL; under setting [4], 12.3 ± 1.98 ng·h/mL. In addition, the “Change of C max after oral PS” value under setting [2] is on record as “reduced”. The “Absorption under the intervention of PS” value (AIA rats) was “decreased”. Also, the AUC(0-inf) was 17.5 ± 1.69 ng·h/mL under setting [5] and 13.6 ± 1.93 ng·h/mL under setting [6]. For the same compound, the Cmax was determined as 7.39 ± 1.16 ng/mL under setting [5] and 4.5 ± 0.902 ng/mL under setting [6]. Also, the Tmax runs as follows: under setting [5], 0.083 ± 0.001 h; under setting [6], 0.25 ± 0.001 h. Besides, the half-life was 4.27 ± 0.406 h under setting [7] and 3.76 ± 0.557 h under setting [8].
Take `CC1(C)[C@@H](O)CC[C@]2(C)[C@H]3C(=O)C=C4[C@@H]5C[C@@](C)(C(=O)O)CC[C@]5(C)CC[C@@]4(C)[C@]3(C)CC[C@@H]12` [Glycyrrhetinic acid]: the AUC 0-t is, setting by setting: under setting [9], 28800 ng·h/mL; under setting [4], 30500 ng·h/mL. Also, the area under the curve AUC(0-inf) runs as follows: under setting [5], 32900 ng·h/mL; under setting [6], 34500 ng·h/mL. The compound further had a peak concentration (Cmax) under setting [5] of 7830 ± 283 ng/mL and a Cmax under setting [6] of 11600 ng/mL. Moreover, the Tmax reads like this: under setting [5], 2 ± 0.001 h; under setting [6], 2 ± 0.001 h. In addition, the half-life is 10.7 ± 3.72 h under setting [7] and 10.8 ± 1.96 h under setting [8].
Consider `CC1(C)[C@@H](O[C@H]2O[C@H](C(=O)O)[C@@H](O)[C@H](O)[C@H]2O[C@@H]2O[C@H](C(=O)O)[C@@H](O)[C@H](O)[C@H]2O)CC[C@]2(C)[C@H]3C(=O)C=C4[C@@H]5C[C@@](C)(C(=O)O)CC[C@]5(C)CC[C@@]4(C)[C@]3(C)CC[C@@H]12` [Glycyrrhizic acid], for which, under setting [1], the “t 1/2” value is reported as 7.605 ± 1.142 h. Moreover, under setting [2], the “Change of C max after oral PS” value is “significantly increased”. Besides, the “Absorption under the intervention of PS” value (AIA rats) is listed as “increased”. The compound further had an AUC 0-t under setting [9] of 23100 ng·h/mL. Under setting [4], this compound displayed an AUC 0-t of 29600 ng·h/mL. Besides, under setting [5], the AUC(0-inf) was determined as 25900 ng·h/mL, the concentration peaked (Cmax) at 3800 ± 304 ng/mL and the time of peak concentration (Tmax) is 0.5 ± 0.001 h. Besides, under setting [6], the AUC(0-inf) was found to be 27400 ng·h/mL, the Cmax worked out at 5200 ± 706 ng/mL and the Tmax is 0.667 ± 0.236 h. Moreover, under setting [8], the half-life was 7.25 ± 0.086 h.
Turning to `O=C(/C=C/c1ccc(O)cc1)c1ccc(O)cc1O` [Isoliquiritigenin], under setting [2], the “Change of C max after oral PS” value was “significantly increased”. The “Absorption under the intervention of PS” value (AIA rats) is given as “increased”. Further, the AUC 0-t stood at 8.76 ± 1.42 ng·h/mL under setting [9] and 9.47 ± 1.45 ng·h/mL under setting [4]. The AUC(0-inf) is 9.61 ± 1.6 ng·h/mL under setting [5] and 10.5 ± 1.27 ng·h/mL under setting [6]. The maximum concentration (Cmax) reads like this: under setting [5], 4 ± 0.545 ng/mL; under setting [6], 5.42 ± 0.422 ng/mL. In addition, the time of peak concentration (Tmax) under setting [5] came out at 0.083 ± 0.001 h and the time to peak (Tmax) under setting [6] was found to be 0.167 ± 0.083 h. Also, the half-life is, setting by setting: under setting [7], 3.12 ± 0.571 h; under setting [8], 3.87 ± 0.889 h.
`O=C1C[C@@H](c2ccc(O)cc2)Oc2cc(O)ccc21` [Liquiritigenin]: under setting [1], the “AUC 0-t” value came out at 48.549 ± 6.497 ng·h/mL, the “AUC 0-∞” value stood at 49.404 ± 6.315 ng·h/mL, the C max amounted to 25.519 ± 7.560 ng/mL and the T max is 0.139 ± 0.079 h. Moreover, the “t 1/2” value under setting [1] worked out at 1.841 ± 0.242 h. Moreover, under setting [3], the “AUC 0-t” value stood at 47.195 ± 4.360 ng·h/mL, the “AUC 0-∞” value stood at 47.548 ± 4.374 ng·h/mL, the C max is 23.367 ± 4.695 ng/mL and the T max amounted to 0.083 ± 0.001 h. For the same compound, the “t 1/2” value under setting [3] was 1.448 ± 0.025 h.
